Converted amounts (≈) assume the structure as drawn.
Columns and labels:
B. subtilis PCI 219 = experiment: In vitro antibacterial activity, twofold agar-dilution method; type: cell-based; conditions: Bacillus subtilis, PCI219; B. subtilis PCI 219 (Gram +); Mueller-Hinton agar, 20 h, 37° C.; calculated for free base; read-out: minimum inhibitory concentration (MIC)
Protocol: (§1) The numbers in the table show minimum inhibitory concentrations (MIC) (μg/ml), calculated for free base. The minimum inhibitory concentration was determined by the twofold agar-dilution method, which was recommended by Japan Society of Chemotherapy (Chemotherapy, 29(1), 76(1981)), using Muller-Hinton agar. One loopful of an overnight culture of test organisms in Mueller-Hinton broth was inoculated onto 10-ml drug-containing agar layers in petri dishes. Bacterial inocula contained approximately 10^6 colonyl-formingunits. Bacterial growth was observed after 20-hour incubation at 37° C. The MIC was defined as the lowest drug concentration which prevented visible bacterial growth.

Ac. calcoaceticus P-6901 = experiment: as above; type: cell-based; conditions: Acinetobacter calcoaceticus, P6901; Ac. calcoaceticus P-6901 (Gram -); Mueller-Hinton agar, 20 h, 37° C.; calculated for free base; read-out: minimum inhibitory concentration (MIC)
Protocol: as §1

S. aureus No. 50774 = experiment: as above; type: cell-based; conditions: Staphylococcus aureus; S. aureus No. 50774 (Gram +); Mueller-Hinton agar, 20 h, 37° C.; calculated for free base; read-out: minimum inhibitory concentration (MIC)
Protocol: as §1

E. coli P-51213 = experiment: as above; type: cell-based; conditions: Escherichia coli, P51213; E. coli P-51213 (Gram -); Mueller-Hinton agar, 20 h, 37° C.; calculated for free base; read-out: minimum inhibitory concentration (MIC)
Protocol: as §1

P. aeruginosa No. 12 = experiment: as above; type: cell-based; conditions: Pseudomonas aeruginosa; P. aeruginosa No. 12 (Gram -); Mueller-Hinton agar, 20 h, 37° C.; calculated for free base; read-out: minimum inhibitory concentration (MIC)
Protocol: as §1

S. aureus No. 80 = experiment: as above; type: cell-based; conditions: Staphylococcus aureus; S. aureus No. 80 (Gram +); Mueller-Hinton agar, 20 h, 37° C.; calculated for free base; read-out: minimum inhibitory concentration (MIC)
Protocol: as §1

S. epidermidis No. 8 = experiment: as above; type: cell-based; conditions: Staphylococcus epidermidis; S. epidermidis No. 8 (Gram +); Mueller-Hinton agar, 20 h, 37° C.; calculated for free base; read-out: minimum inhibitory concentration (MIC)
Protocol: as §1

Al. faecalis P-7001 = experiment: as above; type: cell-based; conditions: Alcaligenes faecalis, P7001; Al. faecalis P-7001 (Gram -); Mueller-Hinton agar, 20 h, 37° C.; calculated for free base; read-out: minimum inhibitory concentration (MIC)
Protocol: as §1

S. aureus 209P JC-1 = experiment: as above; type: cell-based; conditions: Staphylococcus aureus; S. aureus 209P JC-1 (Gram +); Mueller-Hinton agar, 20 h, 37° C.; calculated for free base; read-out: minimum inhibitory concentration (MIC)
Protocol: as §1

M. pneumoniae Mac = experiment: Anti-Mycoplasma activity, twofold agar-dilution method; type: cell-based; conditions: Mycoplasmoides pneumoniae, 168 h, Chanock agar, 37° C., 7 days aerobically, calculated for free base, read-out: minimum inhibitory concentration (MIC)
Protocol: (§2) The numbers in the table show minimum inhibitory concentrations (MIC) (μg/ml), calculated for free base. The minimum inhibitory concentration was determined by the twofold agar-dilution method using Chanock agar. Three μl of a culture of test organisms in Chanock broth was inoculated onto 10-ml drug-containing agar layers in petri dishes. Growth of Mycoplasma was observed after incubation at 37° C. under the conditions shown hereinbelow. The MIC was defined as the lowest drug concentration which prevented growth of Mycoplasma microscopically.

M. hyorhinis BST-7 = experiment: as above; type: cell-based; conditions: Mesomycoplasma hyorhinis, BST7, 72 h, Chanock agar, 37° C., 3 days aerobically, calculated for free base, read-out: minimum inhibitory concentration (MIC)
Protocol: as §2

M. orale CH-19299 = experiment: as above; type: cell-based; conditions: 48 h, Chanock agar, 37° C., 2 days anaerobically, calculated for free base, read-out: minimum inhibitory concentration (MIC)
Protocol: as §2

M. arginini G-230 = experiment: as above; type: cell-based; conditions: Mycoplasmopsis arginini, G230, 48 h, Chanock agar, 37° C., 2 days aerobically, calculated for free base, read-out: minimum inhibitory concentration (MIC)
Protocol: as §2
(§3) Mycoplasma arginini and Acholeplasma laidlawii

A. laidlawii PG-8 = experiment: as above; type: cell-based; conditions: Acholeplasma laidlawii, PG8, 48 h, Chanock agar, 37° C., 2 days aerobically, calculated for free base, read-out: minimum inhibitory concentration (MIC)
Protocol: as §2, §3

[1] = Acute oral toxicity in mice; conditions: mouse, in vivo, po
Protocol: (§4) A solution containing each of compounds 1, 2 and 3 of this invention in various concentrations was orally given to male mice (ddY) at a dose of 0.1 ml per 10 g of body weight. The number of dead mice was counted after 7 days, and the value of median lethal dose (LD50, mg/kg) was calculated in accordance with the Behrens-Kaerber method.

male mice (ddY) = experiment: Acute oral toxicity in mice; conditions: conclusion in words from Table 5
Protocol: as §4

[2] = system: Streptococcus pyogenes A65; experiment: In vivo efficacy against systemic infections in mice; design: species or system Streptococcus pyogenes; male mice (ddY-S); conditions: A65, 168 h, oral, intraperitoneal infection 3×10^7 cells, twice, immediately and 6 h after infection, 7 days, calculated for free base, read-out: median effective dose (ED50)
Protocol: (§5) Compounds were each dissolved in deionized water. Each of the solutions was orally administered to mice infected with each of the test organisms under the conditions shown hereinbelow, and the median effective dose (ED50) was calculated by probit analysis. The numerals in the table show ED50 (mg/kg) value, calculated for free base.
(§6) Mice: Male mice (ddY-S) weighing about 20 g
Streptococcus pyogenes A65
Intraperitoneal infection with 3×10^7 cells per mouse suspended in brain heart infusion broth.
(§7) Four times, immediately, 6, 24 and 30 hours after infection in case of Streptococcus pneumoniae 1 Neufeld. Twice, immediately and 6 hours after infection in case of other organisms.
(§8) For 14 days in case of Staphylococcus aureus 50774 and Streptocuccus pneumoniae 1 Neufeld. For 7 days in case of other organisms.

[3] = system: Streptococcus pneumoniae 1 Neufeld; experiment: as above; design: species or system Streptococcus pneumoniae; male mice (ddY-S); conditions: 336 h, oral, intraperitoneal infection 3×10^3 cells, four times, immediately, 6, 24 and 30 h after infection, 14 days, calculated for free base, read-out: median effective dose (ED50)
Protocol: as §5, §6
Streptococcus pneumoniae 1 Neufeld
Intraperitoneal infection with 3×10^3 cells per mouse suspended in brain heart infusion broth.
as §7, §8

CC1CN(c2c(F)c(N)c3c(=O)c(C(=O)O)cn(C4CC4)c3c2F)CCN1 (stereo not drawn) [Compound 1, 5-Amino-1-cyclopropyl-6,8-difluoro-7-(3-methyl-1-piperazinyl)-1,4-dihydro-4-oxoquinoline-3-carboxylic acid]
MIC (B. subtilis PCI 219): 0.05 µg/mL (≈ 0.132 µM) | MIC (Ac. calcoaceticus P-6901): 0.0125 µg/mL (≈ 0.033 µM) | MIC (S. aureus No. 50774): 0.0125 µg/mL (≈ 0.033 µM) | MIC (E. coli P-51213): 0.025 µg/mL (≈ 0.0661 µM) | MIC (P. aeruginosa No. 12): 0.1 µg/mL (≈ 0.264 µM) | MIC (S. aureus No. 80): 0.0125 µg/mL (≈ 0.033 µM) | MIC (S. epidermidis No. 8): 0.025 µg/mL (≈ 0.0661 µM) | MIC (Al. faecalis P-7001): 0.1 µg/mL (≈ 0.264 µM) | MIC (S. aureus 209P JC-1): 0.025 µg/mL (≈ 0.0661 µM) | MIC (M. pneumoniae Mac): 0.025 µg/mL (≈ 0.0661 µM) | MIC (M. hyorhinis BST-7): 0.2 µg/mL (≈ 0.529 µM) | MIC (M. orale CH-19299): 0.2 µg/mL (≈ 0.529 µM) | MIC (M. arginini G-230): 0.1 µg/mL (≈ 0.264 µM) | MIC (A. laidlawii PG-8): 0.1 µg/mL (≈ 0.264 µM) | LD50 at 168 h [1]: > 2000 mg/kg | oral toxicity (male mice (ddY)): low oral toxicity | ED50 [2]: 5.26 mg/kg | ED50 [3]: 10.9 mg/kg

Reference: patent US4795751A, “5-substituted-6,8-difluoroquinolines useful as antibacterial agents” (Dainippon Pharmaceutical Co., Ltd., priority 1985, dated 1989)
